pEC50: −log10 of the molar value. Entries after “also recorded” stand apart in the source; their conditions may differ. Structures can show the parent of a compound that is named as a salt.

Results on twelve compounds are retold here after publication PMC4821887, “Identification of chemicals that mimic transcriptional changes associated with autism, brain aging and neurodegeneration” (Nature Communications, 2016).

Series [1] has as its system cortical neuron cultures. Also noted: method as in PMID 25404338. The conditions noted are these: cited from earlier work.
Series [2] has as its system mouse cortical neuron-enriched cultures. In words: RNA-seq transcriptional screen with hierarchical clustering and cluster membership. Format: cell-based. The conditions noted are these: for Chemical cluster assigned by gene expression: 24 h at non-toxic concentration, hierarchical clustering of 5,121 variably expressed genes. Here is the method:
(§1) Cultures were treated with the non-cytotoxic dose of each chemical, by exchanging half of the original medium with chemicals at 2 × concentration in prewarmed feeding medium, on DIV 7 for 24 h in 12-well plates at a density of 5 × 10^5 cells per well. RNA was isolated using RNeasy plus mini kit (Cat. #74134, Qiagen). RNA yield and quality were determined using a Nanodrop 1000 Spectrophotometer (Thermo Scientific). Samples were further assessed for quality using either an Agilent Bioanalyzer 2100 or TapeStation 2200 to obtain a RIN. RIN values exceeding 7 were used for sequencing. RNA samples were used to generate and barcode complementary DNA libraries using the TruSeq RNA Library Preparation Kit at the UNC High Throughput Sequencing Facility. Pools of 24 multiplexed samples were sequenced per lane on an Illumina HiSeq 2500 using 50-bp paired-end reads.
(§2) RNA-seq reads were filtered using TagDust and aligned to the reference mouse genome (mm9) with TopHat using default parameters. Reads aligning to ribosomal RNA genes were removed. Transcript abundance was estimated by computing Reads per kilobase per million mapped reads (RPKM) using RefSeq gene models aggregated by gene symbol. For differential expression analyses, raw counts over RefSeq exons were used, and then were compared across samples using DESeq[62].
RPKMs for all RefSeq genes and all samples were filtered such that a given gene had >90% of samples with RPKM >0 and gene length exceeded 500 bp. RPKMs were then log10-transformed, quantile-normalized, median-centred, and the effects due to culture or sequencing batch were removed using a mixed model analysis of variance. This batch correction step was performed on individual experiments rather than chemical–vehicle ratios to reduce the effects due to variations in culture composition as well as batch-to-batch variations at the level of sequencing. Genes were then median-centred again, and filtered such that their s.d. exceeded 0.1. Chemical replicates were then combined using the median. Classes of chemicals were then discovered in two ways. First, we performed hierarchical clustering using average linkage and Pearson correlation distance measures. The boundaries of the discovered classes from clustering were set by computing pairwise Spearman correlations for all samples. A given cluster had to have at least three members with the minimum pairwise Spearman correlation coefficient exceeding 0.2, though cluster members often exceeded a correlation of 0.6 (Supplementary Fig. 5c,d). Seven chemical clusters were discovered, however one was removed due to failing to have a positive silhouette width, a metric of cluster robustness. These definitions enabled the three positive control topoisomerase inhibitors to form a cohesive group of chemicals with known structural and functional similarity (cluster 5). None of the culture or sequencing batches contributed to the formation of any one of the final six clusters (Supplementary Fig. 4).

In series [3] the test system is cortical neurons. Also noted: method as in PMID 20881019. The conditions noted are these: cited from earlier work.
Series [4] deals with humans. The conditions noted are these: cited from earlier work.
Series [5] has as its system mitochondrial superoxide in cortical neurons. In words: Mitochondrial superoxide detection (MitoSOX Red live-cell imaging). Format: cell-based, mouse. The conditions noted are these: for Effect of pretreatment on fenamidone-induced O2− production: fenamidone 10 μM, 2 h; for Mitochondrial superoxide (O2−) production: 2 h treatment, MitoSOX, vincristine 500 µM in Supplementary Fig. 10b; for O2− production at the sequencing concentration: seven-point concentration-response, Supplementary Fig. 8.

Series [6] relates to cortical neurons. Description: Soma morphology (proportion of cells with altered soma morphology) in live-cell imaging. It is filed as cell-based, mouse. The conditions noted are these: for Effect of pretreatment on fenamidone-induced soma swelling / aberrant morphology: fenamidone 10 μM, 2 h; for Soma swelling / aberrant cell morphology: 2 h treatment, vincristine 500 µM in Supplementary Fig. 10c.

Series [7] relates to purified tubulin. Description: Tubulin polymerization assay (cell-free, BK011P). The conditions noted are these: 37 °C, fluorescence over 60 min, equimolar doses. Format: biochemical.
The conditions of series [8]: cited from earlier work.
For series [9], the system named is mouse cortical cultures. Description: RNA-seq differential expression (DESeq) against matched vehicle. Format: cell-based. The conditions noted are these: 24 h. The protocol:
Figure 4 Cluster 2 chemicals alter expression of a common set of genes. […] RNA-seq was performed in quadruplicate after treating cortical cultures with fenamidone (10 μM) or pyraclostrobin (0.1 μM) for 24 h (n=3 biological replicates) and compared with matched vehicle controls using DESeq to detect differentially expressed genes, listed in Supplementary Data 4.
as §1, with “[…].” for “RNA yield and quality were determined using a Nanodrop 1000 Spectrophotometer (Thermo Scientific).”
as §2

For series [10], the system named is rats. The conditions noted are these: lowest dose tested; cited from earlier work.
Series [11] concerns microtubules. The conditions noted are these: cited from earlier work.
In series [12] the test system is mouse cortical neuron cultures.
Setting [13] is: pretreatment 18 h, two concentrations.

Turning to `CC[C@@]1(O)C(=O)OCc2c1cc1n(c2=O)Cc2cc3c(CN(C)C)c(O)ccc3nc2-1` [topotecan, Topotecan hydrochloride, reference compound], the Spontaneous synaptic activity result in series [1] is “reducing spontaneous synaptic activity”. Besides, in [2], the “Chemical cluster assigned by gene expression” value (“Chemical cluster assigned” for short) was “Cluster 5”.
Consider `CC1(C)C(C=C(Cl)Cl)C1C(=O)OC(C#N)c1ccc(F)c(Oc2ccccc2)c1` (stereo not drawn) [cyfluthrin], for which the “Calcium influx in cortical neurons” value in series [3] is listed as “stimulate sustained calcium influx”. Further, in series [2], the “Chemical cluster assigned” value is on record as “cluster 1”.
On to `C[S+]([O-])CCCCN=C=S` (racemic) [sulforaphane, DL-sulforophane], for which, in series [4], the Autism symptoms entry is listed as “substantially reduces autism symptoms”. The “Effect of pretreatment on fenamidone-induced O2− production” value in series [5] (setting [13]) is reported as “attenuated”. Further, the “Effect of pretreatment on fenamidone-induced transcriptional changes (RNA-seq)” value in [2] (pretreatment 10 μM, 18 h, fenamidone 10 μM, 24 h) is given as “attenuated”. For the same compound, the “Effect of pretreatment on fenamidone-induced soma swelling / aberrant morphology” value in series [6] (setting [13]) is on record as “attenuated”.
Turning to `Cc1nn(C)c(Oc2ccccc2)c1C=NOCc1ccc(C(=O)OC(C)(C)C)cc1` [fenpyroximate], the pEC50 in series [5] (Mus musculus, Cortical neurone, read-out: Superoxide production, concentration for half-maximum response (EC50)) is 8.15. The “Chemical cluster assigned” value in series [2] is “cluster 2”.
For the compound `CC(=O)O[C@H]1C(=O)[C@@]2(C)[C@H]([C@H](OC(=O)c3ccccc3)[C@]3(O)C[C@H](OC(=O)[C@H](O)[C@@H](NC(=O)c4ccccc4)c4ccccc4)C(C)=C1C3(C)C)[C@]1(OC(C)=O)CO[C@@H]1C[C@@H]2O` [paclitaxel, Paclitaxel], in series [5] (pretreatment 10 μM), the “Effect of pretreatment on fenamidone-induced O2− production” value was “attenuated”. The “Effect of pretreatment on fenamidone-induced soma swelling / aberrant morphology” value in series [6] (pretreatment 10 μM) is given as “attenuated”. The “Effect on tubulin polymerization” value in series [7] is recorded as “promoted”.
In the case of `COC(=O)N(OC)c1ccccc1COc1ccn(-c2ccc(Cl)cc2)n1` [pyraclostrobin], the “Neurotoxicity in a set of assays used by regulatory agencies” value in series [8] was “No evidence of neurotoxicity”. Besides, in [9] (0.1 μM, vs vehicle, DESeq), the “log2FoldChange, gene Acta2” value was 3.944; the “log2FoldChange, gene Gpnmb” value is 3.288; the “log2FoldChange, gene Hspg2” value is reported as 3.427; the “log2FoldChange, gene Tagln” value came to 3.548. Moreover, the “log2FoldChange, gene Thbs1” value in series [9] (0.1 μM, vs vehicle, DESeq) came to 3.263. In addition, the “Differentially expressed genes (DESeq) compared between the two fungicides” value in [9] (fenamidone 10 μM or pyraclostrobin 0.1 μM) is “up- and downregulate a largely overlapping set of genes”. For the same compound, the “Chemical cluster assigned” value in series [2] is on record as “cluster 2”.
Turning to `CO/C=C(/C(=O)OC)c1ccccc1COc1cccc(C(F)(F)F)n1` [Picoxystrobin], the “Acute neurotoxicity (motor activity)” value in [10] was “caused acute neurotoxicity (reduced motor activity) at the lowest dose tested”.
As for `C=C(C)[C@H]1Cc2c(ccc3c2O[C@@H]2COc4cc(OC)c(OC)cc4[C@@H]2C3=O)O1` [rotenone], the Effect on microtubules result in series [11] is given as “destabilizes microtubules”. For the same compound, the “Chemical cluster assigned” value in series [2] was “cluster 2”. Moreover, in series [12], the “Non-cytotoxic concentration identified with live/dead assay” value is 0.01 µM.
As for `CC[C@]1(O)C[C@H]2CN(CCc3c([nH]c4ccccc34)[C@@](C(=O)OC)(c3cc4c(cc3OC)N(C=O)[C@H]3[C@@](O)(C(=O)OC)[C@H](OC(C)=O)[C@]5(CC)C=CCN6CC[C@]43[C@@H]65)C2)C1` [vincristine, vincristine sulfate salt], the “Mitochondrial superoxide (O2−) production” value in series [5] is listed as “phenocopied”; in [5] (listed as Vincristine), “induced; also recorded: dose-dependent”. Moreover, the figures for the “Soma swelling / aberrant cell morphology” value in [6] and in series [6] (listed as Vincristine) were “phenocopied” and “altered cell morphology; also recorded: dose-dependent”, respectively. Moreover, the “Effect on tubulin polymerization” value in [7] is listed as “inhibited”.
On to `CO/N=C(/C1=NOCCO1)c1ccccc1Oc1ncnc(Oc2ccccc2Cl)c1F` [Fluoxastrobin, fluoxastrobin], for which, in series [5], the “O2− production at the sequencing concentration” value is listed as “did not generate”. Besides, the “Chemical cluster assigned” value in [2] is “not assigned to cluster 2”.
As to `CC1(C)C(C(=O)OC(C#N)c2cccc(Oc3ccccc3)c2)C1(C)C` (stereo not drawn) [fenpropathrin], the “Calcium influx in cortical neurons” value in series [3] is “stimulate sustained calcium influx”. For the same compound, the “Chemical cluster assigned” value in series [2] is listed as “cluster 1”.
Turning to `CO/C=C(/C(=O)OC)c1ccccc1Oc1cc(Oc2ccccc2C#N)ncn1` [azoxystrobin], the “O2− production at the sequencing concentration” value in series [5] is recorded as “did not generate”. In addition, the “Chemical cluster assigned” value in series [2] is on record as “not assigned to cluster 2”.
